Measurements from paper PMC9375819 (EJNMMI Research, 2022).

Tests used:
[1] = PET/CT imaging and ex vivo biodistribution in wild type and ATM-null mice; set-up: species or system C57BL/6 mice; details: 1 h after intravenous administration
Procedure: (§1) All animal procedures were performed in accordance with the UK Animals (Scientific Procedures) Act 1986 and with local ethical committee approval. Mice were bred from parent C57BL/6 J mice heterozygous for a targeted mutation in the ATM^tm1Awbl allele to produce ATM-null (ATM^−/−) mice (Jackson laboratory). Wild-type (ATM^+/+) mice from this breeding program were used as controls. In a separate study, tumour xenografts were created in BALB/c nu/nu mice (8 weeks old) via subcutaneous injection of H1299 wild type, shATM knockdown, or shGFP knockdown cells in a 1:1 PBS/Matrigel® formulation on both sides of the hind flank. Total tumour volumes were allowed to reach an average of 600 mm^3 (range 330–930 mm^3) before imaging and/or biodistribution studies (approx. 6–10 weeks after inoculation).
Animals were anaesthetised by 4% isoflurane gas (0.5 L/min O2) and maintained at approx. 2% and 37 °C throughout the imaging session. C57BL/6 ATM^+/+ and ATM^−/− mice were administered [^18F]1 (83 ng; 0.5–4.6 MBq, molar activity range of 3.2–24.2 GBq/μmol with a standard deviation of 6.5 GBq/μmol) via intravenous bolus injection in the lateral tail vein. […] PET images were each registered to CT, attenuation corrected, calibrated by imaging a phantom containing a fluorine-18 standard solution, and analysed using PMod software package (version 3.807, PMOD Technologies).

[2] = Ex vivo biodistribution, uptake in H1299 tumour xenografts; set-up: species or system BALB/c nu/nu mice
Procedure: as §1
Animals were anaesthetised by 4% isoflurane gas (0.5 L/min O2) and maintained at approx. 2% and 37 °C throughout the imaging session. C57BL/6 ATM^+/+ and ATM^−/− mice were administered [^18F]1 (83 ng; 0.5–4.6 MBq, molar activity range of 3.2–24.2 GBq/μmol with a standard deviation of 6.5 GBq/μmol) via intravenous bolus injection in the lateral tail vein. Xenograft-bearing BALB/c nu/nu mice were administered [^18F]1 (0.5 μg; 0.7–9.6 MBq, molar activity range of 0.62–9.8 GBq/μmol with a standard deviation of 3.0 GBq/μmol) via intravenous bolus injection to the lateral tail vein. PET/CT scanning was completed using a VECTor4CT scanner (MILabs, Utrecht, the Netherlands) for 1 h and was immediately followed by culling, dissection, and gamma counting of selected organs. Tumour tissue was immediately flash frozen in liquid nitrogen and mounted in OCT before producing 10 μm thick sections for autoradiography and H&E staining. Alternatively, frozen tumour tissue was macerated and lysed in RIPA buffer for western blot analysis (full details available in the supporting information). Reconstruction of both CT and PET images was performed with the MILabs reconstruction analysis using a γ-ray energy window of 467–571 keV (background weight 2.5%), 0.8 mm^3 voxel size, 8 subsets, and 5 iterations using the manufacturer’s SROSEM reconstruction type. PET images were each registered to CT, attenuation corrected, calibrated by imaging a phantom containing a fluorine-18 standard solution, and analysed using PMod software package (version 3.807, PMOD Technologies).

[3] = system: H1299 shATM and shGFP cells; experiment: Cell uptake of [18F]1; assay type: cell-based, human; details: irradiated 4 Gy or sham-irradiated, 37 °C
Procedure: (§2) H1299 non-small cell lung cancer cells, either wild type or stably transfected with short hairpin RNA for ATM (shATM) or GFP (shGFP, as a control) expression knockdown, were kindly gifted by Dr Anderson Ryan at the University of Oxford. All cells were cultured at 37 °C and 5% CO2 in Dulbecco’s modified Eagle medium (DMEM) supplemented with 10% foetal bovine serum (FBS) (Gibco, USA), 2 mM L-glutamine, 100 units/mL penicillin, and 100 µg/mL streptomycin (PSG) (Sigma-Aldrich); knockdown cell lines were additionally supplemented with 0.5 μg/mL puromycin dihydrochloride (Merck Life Science, UK). Cells were originally purchased from ATCC and were authenticated by the provider and by STR profiling. Cells were tested regularly for the absence of mycoplasma contamination and were cultured for a maximum of 20 passages after resuscitation from liquid nitrogen storage.
To assess cellular uptake of [^18F]1, aliquots of H1299 shATM or shGFP cells were plated with 1 × 10^5 cells per well in 24-well plates in 500 μL complete growth medium and incubated overnight to allow cells to adhere. Cell culture medium was removed, cells washed with PBS and media replaced with DMEM (no additives). […] The amount of ^18F-activity associated with each fraction was determined using a Wizard2 Automatic Gamma Counter (PerkinElmer).

[4] = system: H1299 shATM and shGFP cells; experiment: Cell retention of [18F]1; assay type: cell-based, human; details: after 1 h incubation with tracer, over 2 h
Procedure: as §2
Retention assays followed the same procedure with a 1-h incubation of cell with [^18F]1, but after culture medium was aspirated and cells washed with PBS (2 × 500 μL), it was replaced (500 μL DMEM) and cells incubated at 37 °C and 5% CO2 for the desired time. The amount of ^18F-activity retained in cells was then determined as above.

[5] = set-up: method as in PMID 29938225, PMID 33123736; details: phase I clinical trial; cited from earlier work
ATM [6] = biological target: T1, ATM (Homo sapiens, UniProt Q13315); experiment: Western blot of pATM, pKAP1 and pCHK2 in irradiated H1299 shGFP cells; assay type: cell-based; details: irradiated (4 Gy) H1299 shGFP knockdown cells, inhibitor 1 h before irradiation, relative to DMSO control
T1 construct: endogenous in cells; host or cells: H1299 shGFP and shATM cells
T1 sequence (Q13315 whole entry): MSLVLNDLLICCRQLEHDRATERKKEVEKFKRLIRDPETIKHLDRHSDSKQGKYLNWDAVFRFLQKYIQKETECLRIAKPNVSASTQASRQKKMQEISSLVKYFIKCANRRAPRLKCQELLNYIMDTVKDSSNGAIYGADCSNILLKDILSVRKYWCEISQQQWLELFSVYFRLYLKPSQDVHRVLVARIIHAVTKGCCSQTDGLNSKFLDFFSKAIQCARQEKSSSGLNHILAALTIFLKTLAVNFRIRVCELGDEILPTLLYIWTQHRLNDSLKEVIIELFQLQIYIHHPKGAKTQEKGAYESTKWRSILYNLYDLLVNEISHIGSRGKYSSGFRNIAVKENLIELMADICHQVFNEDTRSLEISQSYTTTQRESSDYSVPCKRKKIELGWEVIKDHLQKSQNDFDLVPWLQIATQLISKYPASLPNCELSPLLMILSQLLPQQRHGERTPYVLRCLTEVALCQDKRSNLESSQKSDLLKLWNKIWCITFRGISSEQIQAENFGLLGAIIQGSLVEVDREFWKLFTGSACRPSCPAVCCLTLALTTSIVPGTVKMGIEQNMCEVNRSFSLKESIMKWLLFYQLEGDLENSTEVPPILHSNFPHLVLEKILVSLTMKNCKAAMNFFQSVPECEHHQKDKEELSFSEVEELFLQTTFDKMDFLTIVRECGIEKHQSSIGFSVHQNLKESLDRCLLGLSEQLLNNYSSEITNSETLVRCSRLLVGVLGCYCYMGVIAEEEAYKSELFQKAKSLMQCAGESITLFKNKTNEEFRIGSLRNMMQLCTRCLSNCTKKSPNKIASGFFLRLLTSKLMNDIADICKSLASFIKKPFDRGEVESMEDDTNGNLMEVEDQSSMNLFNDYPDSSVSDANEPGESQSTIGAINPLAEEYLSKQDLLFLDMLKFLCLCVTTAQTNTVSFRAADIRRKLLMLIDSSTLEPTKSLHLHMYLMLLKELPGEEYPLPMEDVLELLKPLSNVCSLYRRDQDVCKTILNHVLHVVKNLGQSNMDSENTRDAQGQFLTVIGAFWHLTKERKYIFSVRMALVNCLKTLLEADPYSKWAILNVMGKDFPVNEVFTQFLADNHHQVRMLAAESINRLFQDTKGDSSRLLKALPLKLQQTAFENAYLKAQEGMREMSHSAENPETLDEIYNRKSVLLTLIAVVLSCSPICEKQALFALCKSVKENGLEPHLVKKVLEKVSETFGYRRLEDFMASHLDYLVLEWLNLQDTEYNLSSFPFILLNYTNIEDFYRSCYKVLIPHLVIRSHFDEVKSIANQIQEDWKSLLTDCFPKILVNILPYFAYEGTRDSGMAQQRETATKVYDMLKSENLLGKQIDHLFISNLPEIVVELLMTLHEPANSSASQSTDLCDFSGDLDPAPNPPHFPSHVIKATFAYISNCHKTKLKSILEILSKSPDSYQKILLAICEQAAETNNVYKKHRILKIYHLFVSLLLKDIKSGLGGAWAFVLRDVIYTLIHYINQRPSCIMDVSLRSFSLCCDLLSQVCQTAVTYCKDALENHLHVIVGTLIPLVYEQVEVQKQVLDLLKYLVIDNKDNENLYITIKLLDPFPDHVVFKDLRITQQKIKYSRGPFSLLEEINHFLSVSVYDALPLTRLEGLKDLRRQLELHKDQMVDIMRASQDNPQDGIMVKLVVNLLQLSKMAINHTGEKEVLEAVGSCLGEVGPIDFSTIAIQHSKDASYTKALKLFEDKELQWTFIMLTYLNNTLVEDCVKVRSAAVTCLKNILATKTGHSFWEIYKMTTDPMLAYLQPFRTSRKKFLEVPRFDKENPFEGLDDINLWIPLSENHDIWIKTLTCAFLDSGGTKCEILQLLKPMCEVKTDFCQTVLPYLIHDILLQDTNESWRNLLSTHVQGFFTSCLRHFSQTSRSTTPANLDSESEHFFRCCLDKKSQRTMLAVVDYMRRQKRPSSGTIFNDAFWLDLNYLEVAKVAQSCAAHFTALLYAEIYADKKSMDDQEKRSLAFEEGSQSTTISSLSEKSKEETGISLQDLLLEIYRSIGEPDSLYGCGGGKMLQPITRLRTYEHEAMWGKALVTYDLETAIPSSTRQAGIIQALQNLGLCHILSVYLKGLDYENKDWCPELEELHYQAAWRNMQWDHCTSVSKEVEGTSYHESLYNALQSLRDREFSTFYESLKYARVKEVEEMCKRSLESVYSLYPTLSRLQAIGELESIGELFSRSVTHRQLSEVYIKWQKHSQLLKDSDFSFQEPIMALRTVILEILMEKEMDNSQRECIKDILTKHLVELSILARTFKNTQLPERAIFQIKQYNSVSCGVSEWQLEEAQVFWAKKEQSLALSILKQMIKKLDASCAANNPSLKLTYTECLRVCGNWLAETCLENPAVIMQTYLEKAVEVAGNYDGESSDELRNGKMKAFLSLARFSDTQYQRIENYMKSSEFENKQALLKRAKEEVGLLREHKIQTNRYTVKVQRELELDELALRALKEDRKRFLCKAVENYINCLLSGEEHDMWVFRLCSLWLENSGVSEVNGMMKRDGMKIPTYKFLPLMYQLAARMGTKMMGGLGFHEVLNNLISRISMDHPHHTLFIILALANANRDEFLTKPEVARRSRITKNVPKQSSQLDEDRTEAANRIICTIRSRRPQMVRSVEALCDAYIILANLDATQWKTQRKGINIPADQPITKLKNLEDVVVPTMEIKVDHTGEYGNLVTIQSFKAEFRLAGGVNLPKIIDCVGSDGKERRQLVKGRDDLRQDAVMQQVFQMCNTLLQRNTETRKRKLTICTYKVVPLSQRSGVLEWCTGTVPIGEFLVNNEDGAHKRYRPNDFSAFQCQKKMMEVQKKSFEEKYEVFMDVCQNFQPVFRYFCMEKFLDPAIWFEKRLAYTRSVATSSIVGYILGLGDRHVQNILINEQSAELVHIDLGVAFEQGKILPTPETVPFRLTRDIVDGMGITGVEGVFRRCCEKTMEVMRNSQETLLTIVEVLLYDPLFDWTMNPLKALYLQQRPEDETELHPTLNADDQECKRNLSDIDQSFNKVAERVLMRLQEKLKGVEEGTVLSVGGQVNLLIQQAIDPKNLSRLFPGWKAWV
Procedure: as §2

murine ATM = biological target: T2, murine ATM (Mus musculus, UniProt Q62388); experiment: Western blot of ATM inhibition in CT26 murine colorectal cancer cells; assay type: cell-based
T2 construct: endogenous in cells; host or cells: CT26 murine colorectal cancer cells
Procedure: Western blot analysis was performed to compare the total ATM expression between cell models, in addition to expression of phospho-ATM^S1981 (pATM), phospho-KAP1^S824 (pKAP1), and phospho-CHK2^T68 (pCHK2) expression to assess the effect of irradiation and ATM inhibition on ATM catalytic activity. Cells were irradiated (4 Gy; 0.75 Gy/min) or sham-irradiated and incubated at 37 °C for 1 h before harvesting cells for lysis and blotting (full details in supporting information). Where required, inhibitors were added to cells at the stated concentration from DMSO stock solutions (reaching no greater than 10% DMSO final concentration) with incubation for 1 h prior to irradiation/sham-irradiation. The following antibodies and dilutions were used in this work: phospho-ATM S1981 (ab81292, 1:5000, Abcam); phospho-KAP1 S824 (ab133440, 1:10,000, Abcam); phospho-CHK2 T68 (#2661, 1:1000, Cell Signalling Technologies); Total ATM (ab32420, clone [Y170], 1:500, Abcam); Total KAP1 (ab10483, 1:1000, Abcam); Total CHK2 (05-649, 1:1000, Merck Millipore); HRP-conjugated Tubulin (ab197740, clone [YL1/2], 1:4000, Abcam); HRP-conjugated β-Actin (clone 13E5, 1:1000, Cell Signalling Technologies), HRP-conjugated anti-rabbit secondary (HAF008, 1:1000, R&D Systems); and HRP-conjugated anti-mouse secondary (HAF007, 1:1000, R&D Systems). […]

mTOR = system: mTOR; set-up: method as in earlier work; details: read-out: Cellular IC50 by catalytic inhibition: mTOR; cited from earlier work
PI3K = system: PI3K; set-up: method as in earlier work; details: read-out: Cellular IC50 by catalytic inhibition: PI3K; cited from earlier work
ATM [7] = system: ATM; set-up: method as in earlier work; details: cited from earlier work
ATR = system: ATR; set-up: method as in earlier work; details: read-out: Cellular IC50 by catalytic inhibition: ATR; cited from earlier work
ATM [8] = biological target: T1, ATM; experiment: Blocking of [18F]1 cell-associated activity by non-radioactive ATM inhibitors; assay type: cell-based; details: for effect on [18F]1 cell-associated activity at high molar excess: 1000 nM inhibitor, compared to DMSO control; for effect on [18F]1 cell-associated activity at lower inhibitor concentrations: 0.1–10 nM inhibitor
Procedure: as §2

[9] = BALB/c nu/nu mice, intravenous, 1 h

## CC(C)n1c(=O)n(C)c2cnc3ccc(-c4ccc(OCCCN5CCCCC5)nc4[18F])cc3c21 [[^18F]1]
[1]; C57BL/6 mice
  difference in uptake between wild type and ATM-null mice: Significant differences in uptake between the two mice were only observed in the kidneys and liver
[1]; wild type and ATM-null C57BL/6 mice
  clearance route: hepatobiliary clearance
[2]; [9]
  uptake in H1299 tumour xenografts (shATM): 0.35 ± 0.10 %ID/g
  uptake in H1299 tumour xenografts (shGFP): 0.35 ± 0.14 %ID/g
  uptake in H1299 tumour xenografts (wild type): 0.38 ± 0.12 %ID/g
[2]; after 1 h, all tumour types
  tumour uptake, range: 0.13–0.90 %ID/g
[2]; xenograft-bearing BALB/c nu/nu mice
  clearance route: hepatobiliary clearance
[3]
  cell-associated activity (uptake): increase in cell-associated activity over 1 h followed by a plateau
[4]
  decrease in cell-associated activity (retention): approximately 50%

## CC(C)n1c(=O)n([11CH3])c2cnc3cc(F)c(-c4ccc(OCCCN5CCCCC5)nc4)cc3c21 [[^11C]AZD1390]
[5]
  blood–brain barrier penetration by PET: ability to cross the blood–brain barrier

## CC(C)n1c(=O)n(C)c2cnc3ccc(-c4ccc(OCCCN5CCCCC5)nc4[N+](=O)[O-])cc3c21 [compound 2]
ATM [6]
  pATM expression and downstream targets pKAP1 and pCHK2, western blot: decrease in pATM expression

## CC(C)n1c(=O)n(C)c2cnc3ccc(-c4ccc(OCCCN5CCCCC5)nc4F)cc3c21 [compound 1]
Murine ATM
  murine ATM inhibition and reduction of downstream target pKAP1, western blot: murine ATM inhibition
mTOR
  IC50: > 5.19 µM
ATM [6]
  pATM expression and downstream targets pKAP1 and pCHK2, western blot: decrease in pATM expression
PI3K
  IC50: 5.75 µM
ATM [7]; read-out: Cellular IC50 by catalytic inhibition: ATM
  IC50: < 0.00043 µM
ATM [7]; reported value
  IC50 value of ATM inhibition: sub-nM
ATR
  IC50: > 30 µM
ATM [8]
  effect on [18F]1 cell-associated activity at high molar excess: increase in cell-associated activity
ATM [8]; H1299 shATM and shGFP cells
  effect on [18F]1 cell-associated activity at lower inhibitor concentrations: initial blocking effect

## CC(C)n1c(=O)n(C)c2cnc3cc(F)c(-c4ccc(OCCCN5CCCCC5)nc4)cc3c21 [AZD1390]
ATM [6]
  pATM expression and downstream targets pKAP1 and pCHK2, western blot: decrease in pATM expression
ATM [8]
  effect on [18F]1 cell-associated activity at high molar excess: increase in cell-associated activity
ATM [8]; H1299 shATM and shGFP cells
  effect on [18F]1 cell-associated activity at lower inhibitor concentrations: initial blocking effect

## C[C@@H]1CN(CC(=O)Nc2ccc3c(c2)Cc2cccc(-c4cc(=O)cc(N5CCOCC5)o4)c2S3)C[C@H](C)O1 [KU60019, reference compound]
ATM [6]
  pATM expression and downstream targets pKAP1 and pCHK2, western blot: decrease in pATM expression
ATM [8]; increasing concentrations of blocking agent, H1299 shATM and shGFP cells, 1 h tracer incubation
  blocking of [18F]1 cell-associated activity: significant blocking
